From patent US20080301822A1, “Role of alpha1-adrenergic receptors” (The Cleveland Clinic Foundation, priority 2005, published 2008)

How the values were obtained:
pyramidal cells = test: Action potential generation in pyramidal cells (unpublished data); assay type: cell-based
[1] = system: α1A-AR-EGFP positive hippocampal CA1 interneurons; test: Cell-attached patch recordings of spontaneous action potentials in hippocampal slices; assay type: cell-based, mouse; details: 6FNE 10 μM
Protocol: Slice Preparation and Cell Identification. Hippocampal brain slices were prepared from α1A-AR-EGFP mice in strict accordance with a protocol approved by the Institutional Animal Care and Use Committee at the University of North Dakota. Mice were deeply anesthetized with isoflurane, sacrificed by decapitation, and their brains rapidly removed and placed in an ice-cold saline solution containing (in mM): 130 NaCl, 24 NaHCO3, 5 KCl, 1.25 NaH2PO4, 0.5 CaCl2, 4 MgCl2 and 10 glucose (saturated with 95% O2-5% CO2). The brain was then sectioned at 250-350 μm thick intervals using a Microm HM 650V vibrating blade microtome (Richard-Allen Scientific, Kalamazoo, Mich.). Slices were incubated at 35° C. for 40 min and then allowed to recover for at least 30 min at room temperature (22±1° C.) before experimentation. Slices were transferred to a PC-H chamber with a coverslip bottom (SD Instruments, Grants Pass, Oreg.) mounted on the fixed stage of an upright microscope (Olympus BX51 WI, Tokyo, Japan) equipped with a filter set for fluorescence imaging of EGFP and IR-DIC optics. Interneurons were visualized using 470 nm and 900 nm light with a water immersion objective (Olympus LUMPlanF1 60×IR) and two CCD cameras (Olympus MagnaFire and Sony XC-75, Tokyo, Japan). Dedicated MagnaFire software and a Hamamatsu C-2400 camera controller (Hamamatsu City, Japan) were used to adjust image quality in GFP and IR-DIC channels, respectively. […]
Electrophysiological Recordings. […] Action potentials (APs) were recorded using an Axopatch 200B amplifier (Axon Instruments, Union City, Calif.) in voltage-clamp mode, filtered at 2 kHz, digitized at 10 kHz (Digidata 1322A; Axon Instruments), and recorded to disk using pClamp9.0 software (Axon Instruments). […] Data were analyzed offline using Origin (OriginLab Corp., Northampton, Mass.) and Mini analysis 6.0.1 (Synaptosoft Inc., Decatur, Ga.). Each detected event was inspected visually to exclude obvious false action potentials (AP) before analysis. […] Statistical significance (p<0.05) was determined using the paired Student's t test, and mean values are expressed ±SEM.

α1-ARs = test: Saturation ligand binding on neurosphere membranes; set-up: species or system mouse; details: normal embryonic and neonatal neurospheres, FIG. 19A
Protocol: Ligand Binding. Membranes were prepared and ligand binding was performed as previously described (Rorabaugh et al., Cardiovas. Res., 65:436-445 (2005)). Saturation or competition binding used the nonselective i-AR antagonist, 2-[β-(4-hydroxyl-3-^125I-iodophenyl)ethylaminomethyl]-tetralone (^125I-HEAT) or ^125I-CYP as the radioligand, using either increasing concentration of the radiolabel or using a KD amount (100 pM) to label total α1-ARs and increasing concentrations of an non-labeled selective antagonist. Non-specific labeling was determined by adding 100 uM phentolamine (or α1-ARs) or 1 uM propranolol (for β-ARs). Bmax and KD were determined through the use of Graphpad Prism. Statistical analysis of the binding data used a one-way ANOVA followed by a Newman-Keul's post-test where p<0.05 was considered significant.

[2] = system: α1A-AR mediated increased Ngn2 expression in normal neonatal neurospheres; test: Real time PCR of α1A-AR induced Ngn2 expression with signaling inhibitors; assay type: cell-based, mouse; details: one day phenylephrine treated normal neonatal neurospheres; FIG. 27
Protocol: (§1) Real Time PCR. Neurospheres were grown in proliferation or differentiation medium for 1, 3, 7 and 10 days respectively. The neurospheres grown in the proliferation medium were treated with phenlyephrine for the above-mentioned time along with Rauwalscine (0.1 uM) and Propranolol (1 uM). Total RNA was isolated using the RNAesy kit (Quiagen) and 2 ug RNA was reverse transcribed using oligodT primers with Superscript II Reverse Transcriptase (Invitrogen). Quantitative real time PCR was performed in iCycler (Biorad) using iQ SYBR Green Supermix. (Bio-Rad) The cDNA was amplified with primers for various neural stem cell proliferation and differentiation genes like Notch-1, Nestin, Mash-1, NeuroD, Math-1, Mash-1, Ngn-1, Ngn-2, D1x-2, Sox-2 and Zic-1. Samples obtained from three independent experiments were used for analysis of relative gene expression using the 2(-Delta Delta C(T) Method (Livak, K J and Schmittgen, T D, Methods 25:402-408 (2001)) and were normalized to α-Tubulin gene expression as internal control.
Since Ngn2 mRNA expression, a major gene of neuronal differentiation, appears to be regulated by the α1A-ARs, the common a i-AR signals responsible for this gene regulation was determined. Real time PCR and inhibitors for PKC (GO6983), PI3K (LY294002), MEK (PD98059) and p38 (SB202190) were used on one day phenylephrine treated normal neonatal neurospheres. The α1A-AR mediated increased Ngn2 expression was blocked by PKC, PI3K and MEK (ERK) inhibition but not by the p38 inhibitor (FIG. 27).

[3] = system: normal neonatal neurospheres; test: Real time PCR of neurogenic genes after phenylephrine stimulation; assay type: cell-based, mouse; details: FIG. 26
Protocol: as §1

[4] = system: normal mouse neurospheres; test: Neurosphere differentiation with phenylephrine in proliferation media (+EGF/FGF), immunostaining for MAP2, GFAP, NG2; assay type: cell-based; details: phenylephrine 10 uM, 3-10 days
Protocol: (§2) Neurosphere Isolation Periventricular tissue from 1-2 day old pups was removed into HEPES-buffered Eagles' medium. The tissue was diced and incubated with Mg/Ca-free HBSS containing EDTA, trypsin, and DNase. The tissue was washed, centrifuged, and the pellet was triturated in PBS to produce a single-cell suspension and was passed through a 70 um cell strainer. The cells were cultured in B27 media containing heparin, bFGF and EGF until neurosphere development. Neurospheres were dissociated and replated several passages. A single neurosphere was picked, mechanically dissociated, and cloned by dilution.
Differentiation Assay: […] supplement (stem cell technologies) for embryonic neurospheres or in B-27 medium with 2% serum (for neonatal neurospheres) after dissociating them with the chemical dissociation kit (Stem Cell Technologies). The cells were plated at the density of 2×10^5 cells in 12 well plates and treated with Phenylephrine (10 uM).

[5] = system: normal embryonic mouse neurospheres; test: Differentiation rates (number of live cells) in differentiation media (−EGF/FGF); assay type: cell-based; details: FIG. 16
Protocol: Differentiation rates (number of live cells) were also measured in normal neurospheres using differentiation media (−EGF/FGF) with and without phenylephrine.
(§3) Differentiation Assay: The neurospheres were differentiated by withdrawing the growth factors either in the differentiation supplement (stem cell technologies) for embryonic neurospheres or in B-27 medium with 2% serum (for neonatal neurospheres) after dissociating them with the chemical dissociation kit (Stem Cell Technologies). The cells were plated at the density of 2×10^5 cells in 12 well plates and treated with Phenylephrine (10 uM).

[6] = system: α1A-KO neonatal neurospheres; test: Neurosphere differentiation with phenylephrine, α1A-KO neurospheres; assay type: cell-based, mouse; details: 10 days, FIG. 23B
Protocol: as §2, §3

CAM α1A-AR neurospheres = test: Neurosphere differentiation with phenylephrine, CAM α1A-AR neurospheres; assay type: cell-based, mouse; details: day 10, FIG. 22B
Protocol: as §3

Structure (SMILES): Cl.NCC(O)c1cc(O)c(O)cc1F (centres unmarked) [6FNE, 6-fluoronorepinephrine (6FNE) hydrochloride]
- action potential generation in pyramidal cells (pyramidal cells): inhibits action potential generation
- effect on AP frequency over control conditions ([1]; FIG. 6D, fully reversible with wash): large increase in AP frequency
- frequency of spontaneous action potential discharge, range ([1]; n=4, control range 0-0.7 Hz): 1.8-6.5 Hz
- frequency of spontaneous action potential discharge, mean ([1]; n=4, mean ±SEM, control 0.3±0.1 Hz, 22±1° C.): 3.5±1.1 Hz

Structure (SMILES): O=C1c2ccccc2CCC1CNCCc1ccc(O)c([125I])c1 (stereo not drawn) [125I-HEAT, 2-[β-(4-hydroxyl-3-^125I-iodophenyl)ethylaminomethyl]-tetralone]
- Kd (α1-ARs): 0.176 nM

Structure (SMILES): COc1ccc2c(c1)c(C1=C(c3c[nH]c4ccccc34)C(=O)NC1=O)cn2CCCN(C)C [GO6983]
- block of α1A-AR mediated increased Ngn2 expression [2]: blocked

Structure (SMILES): COc1cccc(-c2cc(=O)c3ccccc3o2)c1N [PD98059]
- block of α1A-AR mediated increased Ngn2 expression [2]: blocked

Structure (SMILES): CNC[C@H](O)c1cccc(O)c1 [Phenylephrine]
- increase of α1A-AR mRNA expression [3]: two hundred-fold
- increase of α1B-AR mRNA expression [3]: 10 fold
- mRNA expression of genes involved in neurogenesis and neuronal differentiation ([3]; normal neonatal neurospheres): induced increased mRNA expression
- differentiation of normal neurospheres in proliferation medium (+EGF/FGF) [4]: caused the differentiation of the neurospheres
- differentiation of normal neurospheres in proliferation medium (+EGF/FGF) ([4]; listed as Phe): induced differentiation into all three cell types
- differentiation of neurospheres (number of live cells) ([5]; differentiation media (−EGF/FGF)): enhances differentiation of neurospheres
- effect on α1A-KO neurospheres (differentiation) [6]: increased formation of neurons
- effect on CAM α1A-AR neurospheres (differentiation) (CAM α1A-AR neurospheres): very little effect

Structure (SMILES): Oc1ccc(-c2nc(-c3ccncc3)c(-c3ccc(F)cc3)[nH]2)cc1 [SB202190]
- block of α1A-AR mediated increased Ngn2 expression [2]: not

Structure (SMILES): COc1cc2nc(N3CCN(C(=O)c4ccco4)CC3)nc(N)c2cc1OC [prazosin]
- block of the phenylephrine enhancement of neurosphere differentiation ([5]; differentiation media (−EGF/FGF) + phenylephrine): can be blocked
